# Where two headings read alike, the source gives them in different places.
# Assays:
# [1] = target: histone deacetylase (HeLa nuclear extracts); test: In vitro assay for inhibition of histone deacetylase (HeLa nuclear extracts, radiolabeled histone H4 peptide substrate); assay type: biochemical; settings: HeLa nuclear extracts 60 μg/ml, 30 min, pH 7.4
# Description: The in vitro assay for inhibition of histone deacetylase (see example C.1) measures the inhibition of HDAC enzymatic activity obtained with the compounds of formula (I).
# HeLa nuclear extracts (supplier: Biomol) were incubated at 60 μg/ml with 2×10^−8 M of radiolabeled peptide substrate. As a substrate for measuring HDAC activity a synthetic peptide, i.e. the amino acids 14-21 of histone H4, was used. The substrate is biotinylated at the NH2-terminal part with a 6-aminohexanoic acid spacer, and is protected at the COOH-terminal part by an amide group and specifically [^3H]-acetylated at lysine 16. The substrate, biotin-(6-aminohexanoic)Gly-Ala-([^3H]-acetyl-Lys-Arg-His-Arg-Lys-Val-NH2), was added in a buffer containing 25 mM Hepes, 1 M sucrose, 0.11 mg/ml BSA and 0.01% Triton X-100 at pH 7.4. After 30 min the deacetylation reaction was terminated by the addition of HCl and acetic acid. (final concentration 0.035 mM and 3.8 mM respectively). After stopping the reaction, the free ^3H-acetate was extracted with ethylacetate. After mixing and centrifugation, the radioactivity in an aliquot of the upper (organic) phase was counted in a β-counter.
# For each experiment, controls (containing HeLa nuclear extract and DMSO without compound), a blank incubation (containing DMSO but no HeLa nuclear extract or compound) and samples (containing compound dissolved in DMSO and HeLa nuclear extract) were run in parallel. In first instance, compounds were tested at a concentration of 10^−5M. […] In each test the blank value was subtracted from both the control and the sample values. The control sample represented 100% of substrate deactylation. For each sample the radioactivity was expressed as a percentage of the mean value of the controls. […] Herein the effects of test compounds are expressed as pIC50 (the negative log value of the IC50-value).
# [2] = tested on: human A2780 ovarian carcinoma cells; test: Antiproliferative activity on A2780 cells (MTT-based assay); assay type: cell-based; settings: four days of incubation; for IC50: Homo sapiens, A2780, 96 h, read-out: Cellular activity pIC50 (converted)
# Description: Cellular activity of the compounds of formula (I) was determined on A2780 tumour cells using a […] assay for cell toxicity or survival (Mosmann Tim, Journal of Immunological Methods 65: 55-63, 1983)(see example C.2).
# All compounds tested were dissolved in DMSO and further dilutions were made in culture medium. Final DMSO concentrations never exceeded 0.1% (v/v) in cell proliferation assays, Controls contained A2780 cells and DMSO without compound and blanks contained DMSO but no cells. MTT was dissolved at 5 mg/ml in PBS. A glycine buffer comprised of 0.1 M glycine and 0.1 M NaCl buffered to pH 10.5 with NaOH (1 N) was prepared (all reagents were from Merck).
# The human A2780 ovarian carcinoma cells (a kind gift from Dr. T. C. Hamilton [Fox Chase Cancer Centre, Pennsylvania, USA]) were cultured in RPMI 1640 medium supplemented with 2 mM L-glutamine, 50 μg/ml gentamicin and 10% fetal calf serum. Cells were routinely kept as monolayer cultures at 37° C. in a humidified 5% CO2 atmosphere. Cells were passaged once a week using a trypsin/EDTA solution at a split ratio of 1:40. All media and supplements were obtained from Life Technologies. Cells were free of mycoplasma contamination as determined using the Gen-Probe Mycoplasma Tissue Culture kit (supplier: BioMérieux).
# Cells were seeded in NUNC™ 96-well culture plates (Supplier: Life Technologies) and allowed to adhere to the plastic overnight. Densities used for plating were 1500 cells per well in a total volume of 200 μl medium. After cell adhesion to the plates, medium was changed and drugs and/or solvents were added to a final volume of 200 μl. Following four days of incubation, medium was replaced by 200 μl fresh medium and cell density and viability was assessed using an MTT-based assay. To each well, 25 μl MTT solution was added and the cells were further incubated for 2 hours at 37° C. The medium was then carefully aspirated and the blue MTT-formazan product was solubilized by addition of 25 μl glycine buffer followed by 100 μl of DMSO. […] Within an experiment, the results for each experimental condition are the mean of 3 replicate wells. For initial screening purposes, compounds were tested at a single fixed concentration of 10^−6 M. For active compounds, the experiments were repeated to establish full concentration-response curves. For each experiment, controls (containing no drug) and a blank incubation (containing no cells or drugs) were run in parallel. The blank value was subtracted from all control and sample values. For each sample, the mean value for cell growth (in absorbance units) was expressed as a percentage of the mean value for cell growth of the control. […] Herein the effects of test compounds are expressed as pIC50 (the negative log value of the IC50-value).
# [3] = not given; remark: listed apart in the source
# [4] = Kinetic solubility in aqueous media (nephelometer turbidity); assay type: physicochemical; settings: aqueous buffer, kinetic from dmso stock; phosphate citrate buffer pH 7.4, dilution from 5 mM DMSO stock; read-out: Solubility Score
# Description: Kinetic solubility in aqueous media measures the ability of a compound to stay in aqueous solution upon dilution (see example C.3).
# DMSO-stock solutions are diluted with a single aqueous buffer solvent in 3 consecutive steps. For every dilution turbidity is measured with a nephelometer.
# In the first dilution step, 10 μl of a concentrated stock-solution of the active compound, solubilized in DMSO (5 mM), was added to 100 μl phosphate citrate buffer pH 7.4 and mixed. In the second dilution step, an aliquot (20 μl) of the first dilution step was further dispensed in 100 μl phosphate citrate buffer pH 7.4 and mixed. Finally, in the third dilution step, a sample (20 μl) of the second dilution step was further diluted in 100 μl phosphate citrate buffer pH 7.4 and mixed. All dilutions were performed in 96-well plates. Immediately after the last dilution step the turbidity of the three consecutive dilution steps were measured with a nephelometer. Dilution was done in triplicate for each compound to exclude occasional errors. Based on the turbidity measurements a ranking is performed into 3 classes. Compounds with high solubility obtained a score of 3 and for this compounds the first dilution is clear. Compounds with medium solubility obtained a score of 2. For these compounds the first dilution is unclear and the second dilution is clear. […] The solubility of 11 compounds was measured.
SMILES,"% metabolism (human, 15 min, 5 μM) [%]",Enzyme activity pIC50 [1],Cellular activity pIC50 [2],melting point [3] [°C],IC50 [2] [µM],solubility [4] [µM],"% metabolism (after 15 min incubation with microsomes (1 mg/ml), compound 5 μM, 37 degrees Celsius) [%]"
COc1cc(N)c(Cl)cc1C(=O)NC1CCN(CCCOc2ccc(F)cc2)CC1OC (centres unmarked) [Cisapride],45,,,,,,
O=C(NO)c1cnc(N2CCO[C@H](CNS(=O)(=O)c3ccc(-c4ccccc4)cc3)C2)nc1 [Compound 1],,7.723,6.232,164,,,
O=C(NO)c1cnc(N2CCNC(CNS(=O)(=O)c3ccc4ccccc4c3)C2)nc1 (centres unmarked) [Compound 2],,8.059,,243,2.04,< 75.8,
O=C(NO)c1cnc(N2CCN(Cc3ccccc3)C(CNS(=O)(=O)c3ccc4ccccc4c3)C2)nc1 (centres unmarked) [Compound 3],,7.647,,135,2.4,< 75.8,
O=C(NO)c1cnc(N2CCOC(CNS(=O)(=O)c3ccc(-c4ccccc4)cc3)C2)nc1 (centres unmarked) [Compound 4],,8.097,,163,0.565,< 75.8,
O=C(NO)c1ccc(N2CCOC(CNS(=O)(=O)c3ccc(-c4ccccc4)cc3)C2)nc1 (centres unmarked) [Compound 5],,7.549,,210,2.05,,
O=C(NO)c1cnc(N2CCOC(CNS(=O)(=O)c3ccc4ccccc4c3)C2)nc1 (centres unmarked) [Compound 6],,7.421,,179,0.413,> 454,
O=C(NO)c1ccc(N2CCOC(CNS(=O)(=O)c3ccc4ccccc4c3)C2)nc1 (centres unmarked) [Compound 7],,7.323,,157,2.04,> 454,
O=C(NO)c1cnc(N2CCOC(CNC(=O)c3ccc(-c4ccccc4)cc3)C2)nc1 (centres unmarked) [Compound 8],,7.487,,290,0.0365,> 454,
O=C(NO)c1cnc(N2CCOC(CNC(=O)c3ccc4ccccc4c3)C2)nc1 (centres unmarked) [Compound 9],,7.609,,246,> 10,> 454,
O=C(NO)c1cnc(N2CCCC(CNS(=O)(=O)c3ccc4ccccc4c3)C2)nc1 (centres unmarked) [Compound 10],,7.65,,210,1.08,> 454,
O=C(NO)c1cnc(N2CC[C@H](O)[C@H](CNS(=O)(=O)c3ccc4ccccc4c3)C2)nc1 [Compound 11],,7.553,,176,> 10,> 454,
O=C(NO)c1cnc(N2CCO[C@H](CNS(=O)(=O)c3ccc(-c4ccccc4)cc3)C2)nc1 [Compound 12],,7.528,,,0.977,75.8 to 454,
CN1CCN(c2ncc(C(=O)NO)cn2)CC1CNS(=O)(=O)c1ccc2ccccc2c1 (centres unmarked) [Compound 13],,7.361,,,1.69,,
O=C(NO)c1cnc(N2CCCC(NS(=O)(=O)c3ccc4ccccc4c3)C2)nc1 (centres unmarked) [Compound 14],,,,,0.243,,
CCCO [propanol],,,,,,,25

# Source: patent publication US8501737B2, “Piperazinyl-, piperidinyl- and morpholinyl-derivatives as novel inhibitors of histone deacetylase” (Janssen Pharmaceutica N.V., priority 2002, dated 2013)
